These are literature values, as cited in patent publication US20240165126A1 (TONIX PHARMACEUTICALS HOLDING CORP., priority 2021, published 2024).

Some results are limits rather than exact numbers.

The conditions of this data set: orally administered; extensive first pass hepatic metabolism; Smith et al. 2012.

As to `C=CCN1CC[C@]23c4c5ccc(O)c4O[C@H]2C(=O)CC[C@@]3(O)[C@H]1C5` [Naloxone], the systemic bioavailability was at most 2%.
